Experimental data published in article PMC4795541, “A Rapid and Quantitative Flow Cytometry Method for the Analysis of Membrane Disruptive Antimicrobial Activity” (PLoS ONE, 2016).
Marks after values point to notes of the source that are not given here. Where a SMILES comes first, the peptide text is derived from it. Where no end group is shown, it is not given here. [ ]: non-standard residue; d: D form. Phe(ol) = N[C@H](CO)Cc1ccccc1; Dab = NCC[C@H](N)C(=O)O; Dap = NC[C@H](N)C(=O)O; Aib = CC(C)(N)C(=O)O

How the values were obtained:
F. nucleatum ATCC 25586 = experiment: MDC, flow cytometry Syto9/PI membrane disruption assay; assay type: cell-based, Fusobacterium nucleatum; settings: for MDC: F. nucleatum ATCC 25586, 90 min peptide/bacteria incubation, Syto9/PI flow cytometry, extrapolated to 100% PI+ cells, average of 3 assays ± SD; for Antimicrobial activity (MDC50): against F. nucleatum, maximum peptide concentration = 1000 µM
From the text: We reasoned that as AMPs disrupt the cytoplasmic membrane we should be able to monitor this disruption using membrane permeable/impermeable fluorescent intercalating DNA dyes that are used to determine the viability of a microbial culture. We initially synthesised melittin (peptide sequence shown in S1 Table) a well characterised, broad-spectrum and potent AMP to investigate whether viability dyes, Syto9 (membrane permeable) and propidium iodide (PI, membrane impermeable), could be used to determine AMP activity, against the melittin-susceptible bacterium Fusobacterium nucleatum. […] Staining cells with 0.1% v/v Syto 9 in 0.9% […] (3.34mM stock solution) and 0.1% v/v PI in saline (50μg/mL stock solution) provided optimal concentrations that gave consistent and distinct cell populations; a membrane intact (Syto9+/PI-) and two membrane disrupted populations (Syto9+/PI+ and Syto9-/PI+; S1 Fig). […] Following from this we then incubated F. nucleatum with variant melittin concentrations and determined the proportion of membrane intact (Syto9+/PI-) and membrane disrupted (PI+ i.e. Syto9+/PI+ and Syto9-/PI+) populations. […] Linear regression of the PI+ values for the peptide concentrations prior to full membrane disruption (% PI+ cells ≤ 99% and ≥ 1–5%) gave an R^2 value of >0.9 and from extrapolation the minimum peptide concentration that induced 100% membrane disruption (MDC) could be determined (Fig 1c, insert). […] Melittin and magainin II are known to have high and low activities against the Gram positive bacterium Streptococcus mutans, respectively. […] Although the standard procedure is a 90 minute incubation of bacteria and AMP, we investigated whether the incubation time could be shortened.
For determination of MDC a 50 μL aliquot of the bacteria/AMP was mixed with 100 μL of 0.9% w/v saline containing 0.1% v/v of SYTO® 9 (3.34mM stock solution) and 0.1% v/v of PI (50μg/mL stock solution) and incubated for 10 minutes at room temperature in the dark. Following incubation the bacterial cell samples were analysed using a Cell Lab Quanta SC MPL flow cytometer (Beckman Coulter) equipped with a 100 W stabilized mercury arc lamp with wavelengths of 365, 404, and 435 nm, and a 488 nm diode laser. The fluorescence from SYTO® 9 was measured through a 525-nm band-pass filter (Fluorescent Channel 1, FL-1), and the red emission of PI was measured with a 670-nm long pass filter (Fluorescent Channel 3, FL-3). A minimum of 100,000 bacterial events were collected and the multi-parametric data analyzed using the Cell Lab Quanta SC software. NB for flow cytometers not fitted with an electrical volume detector for cell counting, the addition of microbeads to the samples can be used to determine cell numbers. MDC was calculated by plotting the percent PI+ cells for the each peptide concentration and fitting a linear curve to the data that is ≤ 99% PI+ cells and ≥ 1–5% PI+ cells (minimum of 4 data points). Inclusion of data points outside of these PI+ cell percentages will result in a positive or negative skewing of the MDC value. By solving the line equation (y = mx + C) for x (peptide concentration) when y = 1 (where 1 = 100% of PI+ cells) the MDC (x) can be determined i.e. MDC = x = (y − C)/m.

[1] = system: HEK-293 (ATCC CRL-1573) cells; experiment: Inhibition of cell proliferation assay (MTS); assay type: cell-based; settings: for IC50: HEK-293 cells 5×10^3, EMEM + 10% FBS, 28 h, MTS, A490, linear regression, maximum peptide concentration = 1000 µM; for Therapeutic Index (proliferation): IC50/MDC50 (F. nucleatum), given as x : 1
Protocol: After 28 h, 20 μL of 3-(4,5-dimethylthiazol-2-yl)-5-(3-carboxymethoxyphenyl)-2-(4-sulfophenyl)-2H-tetrazolium (MTS) solution (CellTiter 96 AQueous Non-Radioactive Cell Proliferation Assay kit, Promega) were added to each well and the plates were incubated for a further 1–2 h at 37°C, 5% CO2 incubator. Cell proliferation was determined by measuring absorbance at 490 nm using a microplate reader (PerkinElmer 1420 Multilabel Counter VICTOR3). Positive and negative controls for inhibition were taken as HEK-293 cells incubated with mytomycin C (5 μg/mL, Sigma Pty Ltd) and HEK-293 cells incubated in media alone, respectively. The percentage of inhibition was calculated using the following formula: % Inhibition = [(A490 test sample—A490 negative control) / (A490 positive control—A490 negative control)] × 100
The percentage of inhibition was plotted against peptide concentration and linear regression analysis was used to determine the AMP concentration needed to inhibit 50% (IC50) of the HEK-293 cells.

Molecule | MDC (F. nucleatum ATCC 25586) | IC50 [1] [µM] | Therapeutic Index (proliferation) [1] | Antimicrobial activity (MDC50) (F. nucleatum ATCC 25586) [µM]
CC(=O)NC(C)(C)C(=O)N1CCC[C@H]1C(=O)NC(C)(C)C(=O)N[C@@H](C)C(=O)NC(C)(C)C(=O)N[C@@H](C)C(=O)N[C@@H](CCC(N)=O)C(=O)NC(C)(C)C(=O)N[C@H](C(=O)NC(C)(C)C(=O)NCC(=O)N[C@@H](CC(C)C)C(=O)NC(C)(C)C(=O)N1CCC[C@H]1C(=O)N[C@H](C(=O)NC(C)(C)C(=O)NC(C)(C)C(=O)N[C@@H](CCC(=O)O)C(=O)N[C@@H](CCC(N)=O)C(=O)N[C@H](CO)Cc1ccccc1)C(C)C)C(C)C [Alamethicin] (Ac-[Aib]P[Aib]A[Aib]AQ[Aib]V[Aib]GL[Aib]PV[Aib][Aib]EQ[Phe(ol)]; N-terminus assumed) | 21.1 ± 4.1 µM | – | – | –
CC[C@H](C)[C@H](NC(=O)CN)C(=O)NCC(=O)N[C@@H](CCN)C(=O)N[C@@H](Cc1ccccc1)C(=O)N[C@@H](CC(C)C)C(=O)N[C@@H](Cc1c[nH]cn1)C(=O)N[C@@H](CO)C(=O)N[C@@H](C)C(=O)N[C@@H](CCN)C(=O)N[C@@H](CCN)C(=O)N[C@@H](Cc1ccccc1)C(=O)NCC(=O)N[C@@H](CCN)C(=O)N[C@@H](C)C(=O)N[C@@H](Cc1ccccc1)C(=O)N[C@H](C(=O)NCC(=O)N[C@@H](CCC(=O)O)C(=O)N[C@H](C(=O)N[C@@H](CCSC)C(=O)N[C@@H](CC(N)=O)C(=O)N[C@@H](CO)C(N)=O)[C@@H](C)CC)C(C)C [Magainin-Dab] (H-GIG[Dab]FLHSA[Dab][Dab]FG[Dab]AFVGEIMNS-NH2; N-terminus assumed) | 11.0 ± 1.0 µM | 178 ± 39.4 | 32.4 : 1 | 5.5 ± 0.5
CC[C@H](C)[C@H](NC(=O)CN)C(=O)NCC(=O)N[C@@H](CN)C(=O)N[C@@H](Cc1ccccc1)C(=O)N[C@@H](CC(C)C)C(=O)N[C@@H](Cc1c[nH]cn1)C(=O)N[C@@H](CO)C(=O)N[C@@H](C)C(=O)N[C@@H](CN)C(=O)N[C@@H](CN)C(=O)N[C@@H](Cc1ccccc1)C(=O)NCC(=O)N[C@@H](CN)C(=O)N[C@@H](C)C(=O)N[C@@H](Cc1ccccc1)C(=O)N[C@H](C(=O)NCC(=O)N[C@@H](CCC(=O)O)C(=O)N[C@H](C(=O)N[C@@H](CCSC)C(=O)N[C@@H](CC(N)=O)C(=O)N[C@@H](CO)C(N)=O)[C@@H](C)CC)C(C)C [Magainin-Dap] (H-GIG[Dap]FLHSA[Dap][Dap]FG[Dap]AFVGEIMNS-NH2; N-terminus assumed) | 29.8±6.9^c μM | 285 ± 19.4 | 19.1 : 1 | 14.9 ± 3.5
GIGKFLHSAKKFGKAFVGEIMNS-NH2 [Magainin II] | – | 95.2 ± 32.2 | 20.2 : 1 | –
GIGRFLHSARRFGRAFVGEIMNS-NH2 [Magainin-Arg] | 4.9±0.2^c μM | 64.5 ± 3 | 25.8 : 1 | 2.5 ± 0.1
GIGXFLHSAXXFGXAFVGEIMNS-CONH2 [Magainin-Orn, magainin II analogue, all lysine residues substituted with ornithine] | 11.4 ± 0.3 µM | 168 ± 42.1 | 29.4 : 1 | 5.7 ± 0.2
